Data on 9 compounds can be found in paper PMC11484510, “Antibacterial activity of structurally diverse natural prenylated isobavachalcone derivatives” (RSC Advances, 2024).

Counter-ions that a name gives are not always drawn. Like-named read-outs stand apart in the source and are kept apart here.

For one experiment, the system named is S. aureus. Description: Combinational study (checkerboard microdilution) with standard drugs. Format: cell-based. How it is done: The Fractional Inhibitory Concentration Index (FICI) was calculated for each test compound and reference drug to find the combinational effect.
In a 96-well flat bottom plate, the reference drug with 4× MIC was serially diluted horizontally. The test compounds with 4× MIC were serially diluted two-fold outside the plate in 1.5 mL Eppendorf's using Mueller Hinton Broth (MHB). These two serially diluted compounds were combined to create drug-compound combinations in the plate. The reference drug (horizontally) and tested compounds (vertically) alone were serially diluted for MIC determination. 100 μL of the standardized bacterial inoculum with a turbidity equivalent to a 0.5 McFarland standard were diluted 1 : 100 in Mueller Hinton Broth and inoculated in the plates. The plates were incubated for 24 hours at 37 °C. After incubation, 10 μL of freshly prepared Alamar blue (Himedia) was added to each well of the plate, and the plates were further incubated at 37 °C for 30 minutes. After incubation, the plates were visually observed. […] The FICI was calculated using the formula FICI = FIC of compound + FIC of drug. The calculation followed is FICI (CA/(MICA)) + (CB/(MICB)), where CA is the MIC of the compound in combination, CB is the MIC of the drug in combination, and MICA and MICB are the MIC values of individual compounds and drugs, respectively. The range selection followed the interpretation criteria. The FICI range of 0.5 to 4 indicates indifference, ≤ or =0.5 indicates synergy and >4 indicates antagonism.[57]
(Dilution methods test growth across graded concentrations, often in twofold steps.)

A further experiment deals with P. aeruginosa ATCC 27853. Nature of the experiment: MIC, broth microdilution (CLSI), Alamar blue. Format: cell-based. Particulars: P. aeruginosa ATCC 27853, 24 hours at 37 °C, read-out: Minimum inhibitory concentration (MIC) P. aeruginosa. An excerpt:
(§1) The bacterial strains S. aureus ATCC 29213, MRSA ATCC 15187, E. coli ATCC 25922, and P. aeruginosa ATCC 27853 were obtained from ATCC (American Type Culture Collection). Cation-adjusted Mueller–Hinton broth (MHB; Becton–Dickinson, Cockeysville, MD) was used to determine the minimum inhibitory concentration (MIC). Mueller–Hinton agar (MHA; Becton–Dickinson) was used for minimum bactericidal concentration (MBC) studies. Alamar blue (Himedia) was used to detect the MIC value.
(§2) The antibacterial activity of the compounds against S. aureus ATCC 29213, MRSA ATCC 15187, E. coli ATCC 25922, and P. aeruginosa ATCC 27853 was determined through a broth microdilution method according to the guidelines of the Clinical and Laboratory Standards Institute (CLSI).[50] […] Growth control and media control were employed along with 2% DMSO as vehicle control.
(§3) In a 96-well flat bottom plate, the test compounds were two-fold serially diluted in Mueller Hinton Broth (MHB). The final concentrations of the compounds ranged from 100 to 0.08 μM. 100 μL of standardized bacterial inoculum with turbidity equivalent to 0.5 McFarland standard (1.5 × 10^8 CFU mL^−1) was diluted 1 : 100 (1.5 × 10^6 CFU mL^−1) in Mueller Hinton Broth and inoculated in the plates.[51] The plates were incubated for 24 hours at 37 °C. After incubation, 10 μL of freshly prepared Alamar blue (Himedia) was added to each well of the plate, and plates were further incubated at 37 °C for 30 minutes. After incubation, the fluorescence was measured at excitation/emission of 540–570/580–610 nm. The percentage inhibition and viability were calculated for the controls, and the Gompertz curve was utilized to estimate the minimum inhibitory concentration.

For the next experiment, the system named is S. aureus ATCC 29213. Description: MIC, broth microdilution (CLSI), Alamar blue. Format: cell-based. Particulars: S. aureus ATCC 29213, 24 hours at 37 °C, read-out: Minimum inhibitory concentration (MIC) S. aureus.
Description: as §1, §2, §3

The test system of another experiment is E. coli ATCC 25922. Nature of the experiment: MIC, broth microdilution (CLSI), Alamar blue. Particulars: E. coli ATCC 25922, 24 hours at 37 °C, read-out: Minimum inhibitory concentration (MIC) E. coli. Format: cell-based.
Description: as §1, §2, §3

In a further experiment the test system is MRSA ATCC 15187. Nature of the experiment: MIC, broth microdilution (CLSI), Alamar blue. Format: cell-based, Methicillin-resistant S. aureus. The conditions noted are these: MRSA ATCC 15187, 24 hours at 37 °C, read-out: Minimum inhibitory concentration (MIC) MRSA.
Description: as §1, §2, §3

Where [1] appears, read: Pseudomonas aeruginosa, ATCC27853, 24 h.
Where [2] appears, read: Staphylococcus aureus, ATCC29213.

As to `O=C(O)c1cn(C2CC2)c2cc(N3CCNCC3)c(F)cc2c1=O` [Ciprofloxacin, ciprofloxacin hydrochloride monohydrate, reference compound], the “MIC combination (drug)” value in the experiment on S. aureus (MIC of ciprofloxacin in combination with IBC, S. aureus) came to 0.156 µM; in the experiment with S. aureus (MIC of ciprofloxacin in combination with IBC-2, S. aureus), 0.3125 µM; in the experiment with S. aureus (MIC of ciprofloxacin in combination with IBC-3, S. aureus), 0.3125 µM.

Regarding `COc1ccc(/C=C/C(=O)c2ccc(OC)c(CC=C(C)C)c2OC)cc1` [IBC-4, (E)-1-(2,4-dimethoxy-3-(3-methylbut-2-en-1-yl)phenyl)-3-(4-methoxyphenyl)prop-2-en-1-one], the MIC in the experiment with P. aeruginosa ATCC 27853 was above 100 µM; in the experiment on P. aeruginosa ATCC 27853 (setting [1]), above 100 µM; in the experiment with S. aureus ATCC 29213, above 100 µM; with S. aureus ATCC 29213 (setting [2]) it was above 100 µM; in the experiment on E. coli ATCC 25922, above 100 µM; with E. coli ATCC 25922 (Escherichia coli, ATCC25922) it was above 100 µM. The MIC with MRSA ATCC 15187 and with MRSA ATCC 15187 (Staphylococcus aureus) was above 100 µM throughout.

In the case of `CC(C)=CCc1c(OCC(=O)N2CCOCC2)ccc(C(=O)/C=C/c2ccc(OCC(=O)N3CCOCC3)cc2)c1OCC(=O)N1CCOCC1` [IBC-5, (E)-2,2′-((2-(3-methylbut-2-en-1-yl)-4-(3-(4-(2-morpholino-2-oxoethoxy)phenyl)acryloyl)-1,3-phenylene)bis(oxy)) bis (1-morpholinoethan-1-one)], the MIC is above 100 µM with P. aeruginosa ATCC 27853; above 100 µM in the experiment on P. aeruginosa ATCC 27853 (setting [1]); above 100 µM with S. aureus ATCC 29213; above 100 µM in the experiment with S. aureus ATCC 29213 (setting [2]); above 100 µM with E. coli ATCC 25922; above 100 µM in the experiment with E. coli ATCC 25922 (Escherichia coli, ATCC25922). Besides, the MIC in the experiment on MRSA ATCC 15187 and in the experiment on MRSA ATCC 15187 (Staphylococcus aureus) was above 100 µM each time.

On to `CC(C)=CCc1c(O)ccc(C(=O)/C=C/c2ccc(OCC(=O)Nc3ccc(Cl)cn3)cc2)c1O` [IBC-6, (E)-N-(5-chloropyridin-2-yl)-2-(4-(3-(2,4-dihydroxy-3-(3-methylbut-2-en-1-yl)phenyl)-3-oxoprop-1-en-1-yl)phenoxy) acetamide], for which the MIC in the experiment on P. aeruginosa ATCC 27853 was above 100 µM; with P. aeruginosa ATCC 27853 (setting [1]), above 100 µM; with S. aureus ATCC 29213, above 100 µM; with S. aureus ATCC 29213 (setting [2]) it was above 100 µM; in the experiment with E. coli ATCC 25922 it was above 100 µM; in the experiment with E. coli ATCC 25922 (Escherichia coli, ATCC25922), above 100 µM. Moreover, the MIC in the experiment with MRSA ATCC 15187 and with MRSA ATCC 15187 (Staphylococcus aureus) was above 100 µM throughout.

As for `CC(C)=CCc1c(O)ccc(C(=O)/C=C/c2ccc(OCC(=O)Nc3c(C)n(C)n(-c4ccccc4)c3=O)cc2)c1O` [IBC-7, (E)-2-(4-(3-(2,4-dihydroxy-3-(3-methylbut-2-en-1-yl)phenyl)-3-oxoprop-1-en-1-yl)phenoxy)-N-(1,5-dimethyl-3-oxo-2-phenyl-2,3-dihydro-1H-pyrazol-4-yl) acetamide], the MIC in the experiment on P. aeruginosa ATCC 27853 is above 100 µM; with P. aeruginosa ATCC 27853 (setting [1]), above 100 µM; with S. aureus ATCC 29213, above 100 µM; in the experiment on S. aureus ATCC 29213 (setting [2]) it was above 100 µM; in the experiment on E. coli ATCC 25922, above 100 µM; with E. coli ATCC 25922 (Escherichia coli, ATCC25922), above 100 µM. For the same compound, the MIC with MRSA ATCC 15187 and in the experiment with MRSA ATCC 15187 (Staphylococcus aureus) was above 100 µM each time.

For the compound `CC(C)=CCc1c(OCC(=O)N2CCCC2)ccc(C(=O)/C=C/c2ccc(OCC(=O)N3CCCC3)cc2)c1O` [IBC-8, (E)-1-(2-hydroxy-3-(3-methylbut-2-en-1-yl)-4-(2-oxo-2-(pyrrolidin-1-yl)ethoxy)phenyl)-3-(4-(2-oxo-2-(pyrrolidin-1-yl)ethoxy)phenyl) prop-2-en-1-one], the MIC in the experiment with P. aeruginosa ATCC 27853 is above 100 µM; in the experiment with P. aeruginosa ATCC 27853 (setting [1]) it was above 100 µM; in the experiment on S. aureus ATCC 29213, above 100 µM; with S. aureus ATCC 29213 (setting [2]), above 100 µM; with E. coli ATCC 25922 it was above 100 µM; in the experiment on E. coli ATCC 25922 (Escherichia coli, ATCC25922), above 100 µM. Moreover, the MIC in the experiment with MRSA ATCC 15187 and with MRSA ATCC 15187 (Staphylococcus aureus) was above 100 µM throughout.

Consider `CC(C)=CCc1c(O)ccc(C(=O)/C=C/c2ccc(OCC(=O)Nc3cc(C)[nH]n3)cc2)c1O` [IBC-9, (E)-2-(4-(3-(2,4-dihydroxy-3-(3-methylbut-2-en-1-yl)phenyl)-3-oxoprop-1-en-1-yl)phenoxy)-N-(5-methyl-1H-pyrazol-3-yl)acetamide], for which the MIC with P. aeruginosa ATCC 27853 is above 100 µM; with P. aeruginosa ATCC 27853 (setting [1]) it was above 100 µM; in the experiment on S. aureus ATCC 29213, above 100 µM; in the experiment with S. aureus ATCC 29213 (setting [2]), above 100 µM; in the experiment with E. coli ATCC 25922, above 100 µM; in the experiment with E. coli ATCC 25922 (Escherichia coli, ATCC25922), above 100 µM. Further, the MIC in the experiment with MRSA ATCC 15187 and with MRSA ATCC 15187 (Staphylococcus aureus) was above 100 µM throughout.

As to `CC(C)=CCc1c(O)ccc(C(=O)/C=C/c2ccc(OCC(=O)N3CCSCC3)cc2)c1O` [IBC-10, (E)-1-(2,4-dihydroxy-3-(3-methylbut-2-en-1-yl)phenyl)-3-(4-(2-oxo-2-thiomorpholinoethoxy)phenyl)-prop-2-en-1-one], the MIC was above 100 µM in the experiment on P. aeruginosa ATCC 27853; above 100 µM with P. aeruginosa ATCC 27853 (setting [1]); above 100 µM in the experiment with S. aureus ATCC 29213; above 100 µM in the experiment with S. aureus ATCC 29213 (setting [2]); above 100 µM with E. coli ATCC 25922; above 100 µM with E. coli ATCC 25922 (Escherichia coli, ATCC25922). Also, the MIC in the experiment with MRSA ATCC 15187 and in the experiment with MRSA ATCC 15187 (Staphylococcus aureus) was above 100 µM throughout.

In the case of `NC[C@H]1O[C@H](O[C@H]2[C@H](O)[C@@H](O[C@H]3O[C@H](CO)[C@@H](O)[C@H](N)[C@H]3O)[C@H](N)C[C@@H]2N)[C@H](O)[C@@H](O)[C@@H]1O` [Kanamycin, kanamycin sulfate, reference compound], in the experiment with P. aeruginosa ATCC 27853 (setting [1]), the MIC is 2.8 µM.
